Residues, ends and D or L forms follow the SMILES beside them. *: point of attachment. Cbz = O=C(OCc1ccccc1)* A value given as a limit tells only on which side of the number the result lay.

On to `COc1ccc(S(C)(=O)=O)cc1C=O`, for which the melting point (usually the temperature of the solid-liquid transition) is 140 to 143 °C. Next, `O=C1NC(=O)C(c2cccc3ccsc23)O1` (centres undefined): 130 to 132 °C; `COCCOc1ccc(CCNC(=O)OCc2ccccc2)c(Oc2ncc(C(F)(F)F)cc2Cl)c1`: 102 to 103 °C; `CN(C)CCOc1cc(-c2ccccc2)on1`: 28 to 29 °C. `O=C(O)c1ccccc1Oc1ccc2c(c1)CC[C@H](CNC[C@H](O)COc1ccccc1)O2`: the melting point came out at 188 °C. For `CN1CCC[C@H]1c1cnccc1C(O)(c1ccccc1)c1ccccc1`, the melting point lay within 232 to 234 °C.

`CN1C(=O)COc2c1cc(Cl)c([N+](=O)[O-])c2C(=O)O` registered a melting point of 257 °C. As to `COc1ccc2c3c(nn(CCO)c13)-c1ccccc1N2`, the melting point came to 275 °C.

`CCCCNC(=O)Nc1ccc(-n2ccnc2)cc1C(=O)NCC1CCN(C(c2ccccc2)c2ccccc2)CC1`: the melting point lay within 197 to 199 °C. In the case of `O=C(CC12CC3CC(CC(C3)C1)C2)Nc1cccc2nc(CCCNCCCO)ccc12`, the melting point is 130 to 135 °C. `O=c1[nH]ncc2[nH]c(-c3ccc(OC(F)F)c(OC4CCC4)c3)c(-c3ccccc3)c12` had a melting point of 280 to 284 °C. As to `COC(=O)C(CC(C)C)NC(=O)C(Cc1ccccc1)NC(=O)OCc1ccccc1` (stereo not drawn) (Cbz-Phe-Leu-OMe; configuration not given here), the melting point lay within 125 to 126 °C.

`c1ccc(C2CNc3ccccc3O2)cc1` (centres undefined) came in with a melting point of 113 to 116 °C. `c1cnc(C2CC(c3cnccn3)CC(c3cnccn3)C2)cn1` (centres undefined): the melting point is 122 to 124 °C. With `C=CCCCS(=O)(=O)CCCC(=O)O`, the melting point was 104 to 107 °C. For `O=c1cc(Nc2ccccc2)[nH]n1-c1ccc(S(=O)(=O)O)cc1`, the melting point lay within 290 to 291 °C. For `COC(=O)c1cccc2cc(C)[nH]c12`, the melting point is 170 to 173 °C.

In the case of `O=C(CCl)Nc1ccc2c(c1NC(=O)c1cccs1)C(=O)c1ccccc1C2=O`, the melting point is 190 to 191 °C. Take `ClC1c2ccccc2C=Cc2ccc(Br)cc21` (centres undefined): the melting point came to 146 °C. Molecule `C(=C\c1nc2ccccc2n1-c1nccs1)/c1ccccc1` came in with a melting point of 99 to 99.5 °C. Next, `Cn1ncnc1COc1nc2c(cc1C1CCC1)nnn2-c1c(F)cccc1F`: 140 to 144 °C; `Cc1ccc([N+](=O)[O-])c(CC2NC(=O)NC2=O)c1C` (centres undefined): 172 to 174 °C; `COC1C=C(C)C2(OC(=O)c3ccc([N+](=O)[O-])cc3)CC(C)(C)C1O2` (centres undefined): 95 to 95.5 °C.

As to `N#Cc1ncn(Cc2ccccc2)c1C#N`, the melting point is 123 to 125 °C. As for `COc1cccc(-n2c(=O)c3c(c4cccnc42)OCC3)c1`, the melting point was above 260 °C. The molecule `Cc1cccc(NC(=O)NC(CC(=O)N(CC(=O)OC(C)(C)C)c2ccccc2)c2ccccc2)c1` (racemic) showed a melting point of 164 °C. `O=C(O)CCc1oc(N2CCN(c3ccccc3)CC2)nc1-c1ccc(Cl)cc1` had a melting point of 177 to 178 °C.

`CCOc1ccc2nc(Cl)c(C=NOC)cc2c1`: the melting point lay in the range of 142 to 144 °C. Next, `Cc1c2n(c3ccccc13)C(=O)C(Cc1c[nH]cn1)CC2` (centres undefined): 156 to 157 °C; `COC(=O)c1cc(C(=O)c2ncc3ccccn23)ccc1N`: 192 °C; `CC1SC(=S)N(C)N=C1c1ncc(Cl)cc1F` (centres undefined): 107 to 112 °C. `FC(F)(F)c1ccc(Nc2nc3ccccc3o2)cc1` came in with a melting point of 180 to 182 °C. On to `CN(C)Cc1cccc(OCCCNc2nc3ccccc3s2)c1`, for which the melting point lay within 154 to 155 °C. Next, `O=C(CNc1ccccc1)Nc1c(Cl)ccc2nc(N3CC[C@@H](O)C3)ccc12`: 230 to 232 °C. `CC(=O)Nc1nc(NCC(O)CO)c(Cl)nc1[N+](=O)[O-]` (centres undefined) returned a melting point of 130 to 131 °C. The molecule `CN(Cc1ccccc1)Cc1c(-c2ccc(NC(=O)NCCO)cc2)sc2c1c(=O)n(-c1ccccc1)c(=O)n2Cc1c(F)cccc1F` displayed a melting point of 220 to 222 °C. In turn, `CS(=O)(=O)c1ccc(-c2cc(C(F)(F)F)nn2C2CCCCC2)cc1F` displayed a melting point of 228 to 229 °C. `Cn1ncnc1COc1nn2c(-c3cccc(F)c3)nncc2c1-c1ccccc1` gave a melting point of 198 °C. Next, `O=C1C=CC(O)(c2cccs2)C=C1`: 103 °C; `COc1ccc(-c2[nH]cc(C(C)=O)c2N)cc1`: 198 to 200 °C. For `O=C(O)CCCNC(=O)c1ccccc1NC(=O)c1ccccc1[N+](=O)[O-]`, the melting point was 142 to 144 °C. Regarding `OCCC#CC1CCC(COc2ccc(F)cc2)O1` (mixture of isomers), the melting point stood at 76 °C. For the molecule `Nc1cc(-n2cc(C(=O)O)c(=O)c3c(O)c(F)c(F)cc32)c(F)cc1F`, the melting point is above 270 °C.

Turning to `Cc1ccc2c(c1)N=C(N1CCN(C)CC1)c1cc(C)sc1O2`, the melting point fell in the range of 146 to 148 °C. Next, `Cc1csc2c1-n1cccc1/C2=N/OCCBr`: 92 °C; `SCCNc1nc(-c2ccccc2)c2cc(Cl)ccc2n1`: 166 °C. On to `CN(C)c1ccc(N=Nc2nc3ccccc3s2)cc1`, for which the melting point lay in the range of 243 to 246 °C. Next, `Cc1cncn1-c1cc(C#N)cc(C(F)(F)F)c1`: 99 to 101 °C; `COC(=O)CCC(CCCCNS(=O)(=O)c1ccc(Cl)cc1)CCOc1cccnc1` (centres undefined): 57 to 58 °C; `COc1cc(Cc2cnc(N)nc2N)cc2c1NCCC2C` (centres undefined): 221 to 223 °C. With `COc1ccc2c(n1)c(CC[N+](=O)[O-])c1n2Cc2ccccc2-1` the figure was 127 to 128 °C; with `CCN(CC)CCCN1CCC(O)(c2ccccc2)C(C(=O)c2ccccc2)C1` (centres undefined), 76 to 78 °C.

In turn, `N#Cc1cnc(Nc2ccc(OCCn3cncn3)cc2)nc1-c1ccccc1` yielded a melting point of 105 °C. As to `CC(NC(=O)Cc1cc(F)cc(F)c1)C(=O)NC1C(=O)NCc2cc(Cc3ccccc3)ccc21` (centres undefined), the melting point was in the range of 159 to 166 °C. `O=C(O)c1cc(I)c(F)c(F)c1F` registered a melting point of 167 to 171 °C. For the molecule `Cc1nccn1-c1nc(-c2ccc(Cl)cc2)c(CCCC(=O)NCCCl)o1`, the melting point lay within 131 to 132 °C. `C#CCOc1ccc(CCN(OS(C)(=O)=O)C(=O)Cc2ccc(Cl)cc2)cc1OC` returned a melting point of 91 to 93 °C.

`CCOC(=O)/C=C(/c1ccc(CC)cc1)c1cc(Cl)cc(Cl)c1` came in with a melting point of 73 to 75 °C. `COC(=O)C1=C(C)NC(C)=C(C(=O)OC)C1c1cc([N+](=O)[O-])ccc1OCCNCC(O)c1ccccc1` (centres undefined): the melting point lay within 135 to 137 °C. As to `CCCCn1c(O)c(N=Nc2ccc(S(=O)(=O)N(CC(C)O)CC(C)O)cc2)c(C)c(C#N)c1=O` (centres undefined), the melting point is 189 to 190 °C. `COc1ccc(CCNC(=O)C2CCC2)cc1`: the melting point is 118 to 120 °C. In turn, `c1nnc2c3c(c(NCCCN4CCCC4)nn12)CCCC3` returned a melting point of 169 to 171 °C. With `Fc1ccc(Cn2c(NC3CCN(CCOc4ccc5ccccc5n4)CC3)nc3ccccc32)cc1` the figure was 150 °C; with `CNC(=S)C1=CC(C)(COC)Oc2ccc([N+](=O)[O-])cc21` (centres undefined), 146 to 148 °C.

For the origin of these results see a melting point compilation (Tetko et al.; mined from patent text by program, amines drawn as free bases though some values may be those of a salt).
